# Laboratory results taken from patent US6355799B1, “Substituted benzene compounds, process for their preparation, and herbicidal and defoliant compositions containing them” (ISK Americas Incorporated, priority 1997, dated 2002).
# Experiments:
# Format in all cases: in vivo
# [1] = test system: field corn (Zea mays L., var. Dekalb 535, CORN); experiment: Pre-emerge test, crop safety; settings: crop damage rating 0-100, 14 days after application
# Outline: (§1)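 Fourteen days after spraying, crop and weed injury was graded visually from 0, no effect, to 100, every plant dead. Test substances were dissolved in acetone and applied at 15–1000 g ai/ha with a flat-fan nozzle. Application was either pre-emergence, one day after sowing, or post-emergence at the 2–3 leaf stage.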
# [2] = test system: upland rice (Oryza sp., var. Tebonnet, RICE); experiment: Pre-emerge test, crop safety; settings: crop damage rating 0-100, 14 days after application
# Outline: as §1
# [3] = test system: large crabgrass (Digitaria sanguinalis, DIGSA); experiment: Post-emerge test, greenhouse herbicide activity screening; settings: post-emerge, 14 days after application, rating scale 0-100
# Outline: (§2)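 Visual ratings on a 0-100 scale (0 no damage, 100 all plants dead) were taken at 14 days after treatment. Rates of 15-1000 g ai/ha in acetone, 187 l/ha, were sprayed onto soil one day after planting (pre-emerge) or onto 2-3 leaf plants with 0.25% v/v surfactant (post-emerge).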
# [4] = test system: redroot pigweed (Amaranthus retroflexus, AMARE); experiment: as above; settings: post-emerge, 14 days after application
# Outline: as §2
# [5] = test system: sicklepod (Cassia obtusifolia, CASOB); experiment: as above; settings: post-emerge, 14 days after application, rating scale 0-100
# Outline: as §2
# [6] = test system: barnyardgrass (Echinochloa crus-galli, ECHCG); experiment: as above; settings: post-emerge, 14 days after application, rating scale 0-100
# Outline: as §2
# [7] = test system: green foxtail (Setaria viridis, SETVI); experiment: as above; settings: post-emerge, 14 days after application, rating scale 0-100
# Outline: as §2
# [8] = test system: ivyleaf morningglory (Ipomoea hederacea, IPOHE); experiment: as above; settings: post-emerge, 14 days after application, rating scale 0-100
# Outline: as §2
# [9] = test system: johnsongrass (Sorghum halepense, SORHA); experiment: as above; settings: post-emerge, 14 days after application, rating scale 0-100
# Outline: as §2
# [10] = test system: lambsquarters (Chenopodium album, CHEAL); experiment: as above; settings: post-emerge, 14 days after application, rating scale 0-100
# Outline: as §2
# [11] = test system: velvetleaf (Abutilon theophrasti, ABUTH); experiment: as above; settings: post-emerge, 14 days after application, rating scale 0-100
# Outline: as §2
# [12] = test system: large crabgrass (Digitaria sanguinalis, DIGSA); experiment: Pre-emerge test, greenhouse herbicide activity screening; settings: phytotoxicity rating 0-100, 14 days after application
# Outline: as §2
# [13] = test system: sicklepod (Cassia obtusifolia, CASOB); experiment: as above; settings: phytotoxicity rating 0-100, 14 days after application
# Outline: as §2
# [14] = test system: barnyardgrass (Echinochloa crus-galli, ECHCG); experiment: as above; settings: phytotoxicity rating 0-100, 14 days after application
# Outline: as §2
# [15] = test system: green foxtail (Setaria viridis, SETVI); experiment: as above; settings: phytotoxicity rating 0-100, 14 days after application
# Outline: as §2
# [16] = test system: ivyleaf morningglory (Ipomoea hederacea, IPOHE); experiment: as above; settings: phytotoxicity rating 0-100, 14 days after application
# Outline: as §2
# [17] = test system: johnsongrass (Sorghum halepense, SORHA); experiment: as above; settings: phytotoxicity rating 0-100, 14 days after application
# Outline: as §2
# [18] = test system: lambsquarters (Chenopodium album, CHEAL); experiment: as above; settings: phytotoxicity rating 0-100, 14 days after application
# Outline: as §2
# [19] = test system: velvetleaf (Abutilon theophrasti, ABUTH); experiment: as above; settings: phytotoxicity rating 0-100, 14 days after application
# Outline: as §2
# [20] = test system: field corn (Zea mays L., var. Dekalb 535, CORN); experiment: Post-emerge test, crop safety; settings: post-emerge, 14 days after application, rating scale 0-100
# Outline: as §2
# [21] = test system: upland rice (Oryza sp., var. Tebonnet, RICE); experiment: Post-emerge test, crop safety; settings: post-emerge, 14 days after application, rating scale 0-100
# Outline: as §2
# [22] = test system: redroot pigweed (Amaranthus retroflexus, AMARE); experiment: Pre-emerge test, greenhouse herbicide activity screening; settings: phytotoxicity rating 0-100, 14 days after application
# Outline: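 Compounds in acetone were track-sprayed at 15-1000 g ai/ha (187 l/ha) on sandy loam pots: pre-emerge one day after seeding, post-emerge at 2-3 leaf stage with 0.25% v/v non-ionic surfactant. Phytotoxicity was rated 14 days later on a 0 (no damage) to 100 (complete death) scale.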
# [23] = 63 g ai/ha, rating scale 0-100 (0 no damage, 100 complete death)
# [24] = 250 g ai/ha, rating scale 0-100
smiles,measurement,setting,value
COc1c(Cl)cc(F)c(-n2c(=O)cc(C(F)(F)F)n(C)c2=O)c1NC(=O)OCc1ccc(F)c(F)c1 [4-30],Pre-emerge Herbicidal Activity CORN,[1]; 63 g ai/ha,30
same,Pre-emerge Herbicidal Activity CORN,[1]; 250 g ai/ha,70
same,Pre-emerge Herbicidal Activity RICE,[2]; 63 g ai/ha,90
same,Pre-emerge Herbicidal Activity RICE,[2]; 250 g ai/ha,90
same,phytotoxicity rating DIGSA,[3]; 63 g ai/ha,50
same,phytotoxicity rating DIGSA,[3]; 250 g ai/ha,85
same,phytotoxicity rating AMARE,[4]; [23],100
same,phytotoxicity rating AMARE,[4]; [24],100
same,phytotoxicity rating CASOB,[5]; 63 g ai/ha,100
same,phytotoxicity rating CASOB,[5]; 250 g ai/ha,100
same,phytotoxicity rating ECHCG,[6]; 63 g ai/ha,50
same,phytotoxicity rating ECHCG,[6]; 250 g ai/ha,90
same,phytotoxicity rating SETVI,[7]; 63 g ai/ha,80
same,phytotoxicity rating SETVI,[7]; 250 g ai/ha,100
same,phytotoxicity rating IPOHE,[8]; 63 g ai/ha,100
same,phytotoxicity rating IPOHE,[8]; 250 g ai/ha,100
same,phytotoxicity rating SORHA,[9]; 63 g ai/ha,50
same,phytotoxicity rating SORHA,[9]; 250 g ai/ha,100
same,phytotoxicity rating CHEAL,[10]; 63 g ai/ha,100
same,phytotoxicity rating CHEAL,[10]; 250 g ai/ha,100
same,phytotoxicity rating ABUTH,[11]; 63 g ai/ha,100
same,phytotoxicity rating ABUTH,[11]; 250 g ai/ha,100
same,Pre-emerge Herbicidal Activity DIGSA,[12]; 63 g ai/ha,90
same,Pre-emerge Herbicidal Activity DIGSA,[12]; 250 g ai/ha,100
same,Pre-emerge Herbicidal Activity CASOB,[13]; 63 g ai/ha,90
same,Pre-emerge Herbicidal Activity CASOB,[13]; 250 g ai/ha,95
same,Pre-emerge Herbicidal Activity ECHCG,[14]; 63 g ai/ha,60
same,Pre-emerge Herbicidal Activity ECHCG,[14]; 250 g ai/ha,90
same,Pre-emerge Herbicidal Activity SETVI,[15]; 63 g ai/ha,100
same,Pre-emerge Herbicidal Activity SETVI,[15]; 250 g ai/ha,100
same,Pre-emerge Herbicidal Activity IPOHE,[16]; 63 g ai/ha,60
same,Pre-emerge Herbicidal Activity IPOHE,[16]; 250 g ai/ha,100
same,Pre-emerge Herbicidal Activity SORHA,[17]; 63 g ai/ha,30
same,Pre-emerge Herbicidal Activity SORHA,[17]; 250 g ai/ha,80
same,Pre-emerge Herbicidal Activity CHEAL,[18]; 63 g ai/ha,100
same,Pre-emerge Herbicidal Activity CHEAL,[18]; 250 g ai/ha,100
same,Pre-emerge Herbicidal Activity ABUTH,[19]; 63 g ai/ha,100
same,Pre-emerge Herbicidal Activity ABUTH,[19]; 250 g ai/ha,100
same,phytotoxicity rating CORN (crop damage),[20]; 63 g ai/ha,90
same,phytotoxicity rating CORN (crop damage),[20]; 250 g ai/ha,99
same,phytotoxicity rating RICE (crop damage),[21]; 63 g ai/ha,80
same,phytotoxicity rating RICE (crop damage),[21]; 250 g ai/ha,85
same,Pre-emerge Herbicidal Activity AMARE,[22]; 63 g ai/ha,100
same,Pre-emerge Herbicidal Activity AMARE,[22]; 250 g ai/ha,100
CCc1ccc(COC(=O)Nc2c(OC)c(Cl)cc(F)c2-n2c(=O)cc(C(F)(F)F)n(C)c2=O)cc1 [4-31],Pre-emerge Herbicidal Activity CORN,[1]; 63 g ai/ha,0
same,Pre-emerge Herbicidal Activity CORN,[1]; 250 g ai/ha,10
same,Pre-emerge Herbicidal Activity RICE,[2]; 63 g ai/ha,10
same,Pre-emerge Herbicidal Activity RICE,[2]; 250 g ai/ha,30
same,phytotoxicity rating DIGSA,[3]; 63 g ai/ha,0
same,phytotoxicity rating DIGSA,[3]; 250 g ai/ha,10
same,phytotoxicity rating AMARE,[4]; [23],100
same,phytotoxicity rating AMARE,[4]; [24],100
same,phytotoxicity rating CASOB,[5]; 63 g ai/ha,10
same,phytotoxicity rating CASOB,[5]; 250 g ai/ha,30
same,phytotoxicity rating ECHCG,[6]; 63 g ai/ha,10
same,phytotoxicity rating ECHCG,[6]; 250 g ai/ha,10
same,phytotoxicity rating SETVI,[7]; 63 g ai/ha,20
same,phytotoxicity rating SETVI,[7]; 250 g ai/ha,40
same,phytotoxicity rating IPOHE,[8]; 63 g ai/ha,100
same,phytotoxicity rating IPOHE,[8]; 250 g ai/ha,100
same,phytotoxicity rating SORHA,[9]; 63 g ai/ha,0
same,phytotoxicity rating SORHA,[9]; 250 g ai/ha,10
same,phytotoxicity rating CHEAL,[10]; 63 g ai/ha,100
same,phytotoxicity rating CHEAL,[10]; 250 g ai/ha,100
same,phytotoxicity rating ABUTH,[11]; 63 g ai/ha,100
same,phytotoxicity rating ABUTH,[11]; 250 g ai/ha,100
same,Pre-emerge Herbicidal Activity DIGSA,[12]; 63 g ai/ha,50
same,Pre-emerge Herbicidal Activity DIGSA,[12]; 250 g ai/ha,100
same,Pre-emerge Herbicidal Activity CASOB,[13]; 63 g ai/ha,0
same,Pre-emerge Herbicidal Activity CASOB,[13]; 250 g ai/ha,10
same,Pre-emerge Herbicidal Activity ECHCG,[14]; 63 g ai/ha,10
same,Pre-emerge Herbicidal Activity ECHCG,[14]; 250 g ai/ha,30
same,Pre-emerge Herbicidal Activity SETVI,[15]; 63 g ai/ha,90
same,Pre-emerge Herbicidal Activity SETVI,[15]; 250 g ai/ha,100
same,Pre-emerge Herbicidal Activity IPOHE,[16]; 63 g ai/ha,0
same,Pre-emerge Herbicidal Activity IPOHE,[16]; 250 g ai/ha,40
same,Pre-emerge Herbicidal Activity SORHA,[17]; 63 g ai/ha,10
same,Pre-emerge Herbicidal Activity SORHA,[17]; 250 g ai/ha,20
same,Pre-emerge Herbicidal Activity CHEAL,[18]; 63 g ai/ha,90
same,Pre-emerge Herbicidal Activity CHEAL,[18]; 250 g ai/ha,100
same,Pre-emerge Herbicidal Activity ABUTH,[19]; 63 g ai/ha,30
same,Pre-emerge Herbicidal Activity ABUTH,[19]; 250 g ai/ha,100
same,phytotoxicity rating CORN (crop damage),[20]; 63 g ai/ha,10
same,phytotoxicity rating CORN (crop damage),[20]; 250 g ai/ha,25
same,phytotoxicity rating RICE (crop damage),[21]; 63 g ai/ha,20
same,phytotoxicity rating RICE (crop damage),[21]; 250 g ai/ha,40
same,Pre-emerge Herbicidal Activity AMARE,[22]; 63 g ai/ha,100
same,Pre-emerge Herbicidal Activity AMARE,[22]; 250 g ai/ha,100
